The subject of data set [1] is CBA/J mice. In words: Kanamycin-induced hearing loss in CBA/J mice in vivo (ABR threshold shifts), chronic model. The following applies: SAHA 50 mg/kg IP twice daily for 15 days with KM 700 mg base/kg twice daily. How it is done:
Male CBA/J mice at the age of 5 weeks received subcutaneous (SQ) injections of KM at 700 mg base/kg (dissolved in saline) twice per day (AM and PM). SAHA for administration was dissolved in 100% DMSO for stock solutions of 50 mg/mL and diluted with saline immediately before intraperitoneal (IP) injection, for a final dose of 50 mg/kg, given twice per day for 15 days. The concentration of DMSO vehicle control was 1 mL/kg body weight. All solutions were filtered with a syringe filter before injection. Body weight was measured before each injection.
ABRs were measured 3 days before and 3 weeks after drug treatments. Animals were anesthetized with IP injections of ketamine (100 mg/kg) and xylazine (10 mg/kg) for mice or ketamine (58.8 mg/kg), xylazine (2.4 mg/kg), and acepromazine (1.2 mg/kg) for guinea pigs. Body temperature was maintained near 37°C with a heating pad. ABRs were measured at 12 and 32 kHz for guinea pigs or 8, 16, and 32 kHz for mice in a sound-isolated and electrically shielded booth (Acoustic Systems, Austin, TX, USA). Sub-dermal electrodes were inserted at the vertex of the skull, under the left ear and under the right ear (ground). Tucker Davis Technology System III hardware and SigGen/Biosig software were used to present the stimuli monaurally (15 ms duration tone bursts with 1 ms rise-fall time) through a Beyer earphone attached to a customized plastic speculum inserted into the ear canal. Up to 1024 responses were averaged for each stimulus level. Thresholds (the lowest stimulus level with a reproducible response) were determined by reducing the intensity in 10-dB steps and then in 5-dB steps approaching the threshold until no organized response was detected. Thresholds were evaluated based on ABR wave I. Scores were given by an expert blinded to experimental conditions between the highest stimulus level without a response and the lowest stimulus level where an organized response was observed. All ABR measurements were conducted by the same experimenter. […]

The nature of data set [2]: Guinea pig tolerability, serum platelet, BUN and creatinine levels. In kind it is in vivo, guinea pigs. The following applies: for BUN / Cr: in mg/dL (unit assumed). How it is done: Pigmented male guinea pigs initially weighing 200–250 g from Charles River were used in the in-vivo study. Experiments were begun 1 week after the guinea pigs arrived. To select safe doses of SAHA for protective studies, we conducted two separate sets of experiments to assess serum platelet concentrations. In the first set, pigmented guinea pigs received daily IP injections of SAHA at lower doses (LD; 2 mg/kg and 5 mg/kg) concurrent with SQ injections of 120 mg GM base/kg body weight daily for 2 weeks. In the second study, the higher doses (HD) of SAHA (15 mg/kg and 25 mg/kg) were used. The DMSO concentration was 1.1 g/kg, equal to the DMSO concentration used for the 25 mg/kg concentration of SAHA. […] We then tested the protective ability of SAHA at LD (2 mg/kg and 5 mg/kg) and at HD of SAHA (15 mg/kg and 25 mg/kg) against GM-induced hearing loss concurrent with daily SQ injections of GM (dissolved in saline) at 120 mg base/kg for 14 days. SAHA was dissolved in 100% DMSO for stock solutions of 25 mg/mL and diluted with saline immediately before IP injections. All compound solutions were filtered with syringe filters before injection. Body weights were measured before each injection. If a guinea pig lost ~5% of its body weight, an additional 3–4 mL of saline was administrated subcutaneously.
Blood was obtained by nail clipping after light anesthesia of the guinea pigs by metofane inhalation after the last drug injections. Blood cells were separated by centrifugation at 1000× g for 15 min, and sera were stored at −20°C. Blood urea nitrogen (BUN), creatinine and platelet concentrations were determined using a Kodak Ektachem700XR Clinical Chemistry Analyzer (Clinical Products Division, Eastman Kodak, Rochester, NY, USA) and analyzed by Dr. Donald Giacherio, Chemical Pathology Laboratory, University of Michigan.
While the CBA/J mouse is a well-established model for chronic KM-induced ototoxicity, we wished to ascertain whether the lack of protection by SAHA might be species-dependent. We therefore tested if SAHA treatment had protective effects against GM-induced hearing loss in guinea pigs. To find safe doses to be used in guinea pigs in vivo, we first assessed serum platelet concentrations. Guinea pigs tolerated injections of SAHA at all concentrations of 5–25 mg/kg body weight concurrent with SQ injections of 120 mg GM base/kg body weight daily for 2 weeks with normal appearing fur and steadily increasing body weight. Blood samples were collected after the last injection.

Data set [3] deals with mice. The following applies: systemic SAHA, cited from earlier work.
For data set [4], the system named is mice. More on the design: method as in Layman et al., 2015. Conditions: 100 mg/kg/day for 2 weeks, ref Layman et al., 2015; cited from earlier work.
For data set [5] the following is noted: cited from earlier work.
The mark [6] stands for this setting: GM + SAHA (HD: 15–25 mg/kg), n=5.
[7] abbreviates: SAHA alone (LD + HD; LD 2–5 mg/kg, HD 15–25 mg/kg), n=2.

The values below come from publication PMC5660723, “Histone Deacetylase Inhibitors Are Protective in Acute but Not in Chronic Models of Ototoxicity” (Frontiers in Cellular Neuroscience, 2017).

Turning to `O=C(CCCCCCC(=O)Nc1ccccc1)NO` [SAHA, vorinostat], in data set [1], the “effect on KM-induced auditory threshold shifts” value is reported as “did not attenuate”. For the same molecule, the BUN in data set [2] (setting [6]) stood at 17 ± 3.2; in data set [2] (GM + SAHA (LD: 2–5 mg/kg), n=6) it was 17 ± 1.7; in data set [2] (setting [7]), 17.5 ± 0.7. Moreover, the Cr in data set [2] (setting [6]) stood at 0.4 ± 0.08; in data set [2] (GM + SAHA (LD: 2–5 mg/kg), n=6), 0.4 ± 0.06; in data set [2] (setting [7]) it was 0.5 ± 0.007. For the same molecule, the “platelet concentration compared to GM alone” value in data set [2] (SAHA 25 mg/kg IP daily with 120 mg GM base/kg SQ for 2 weeks) is “significantly lower”. The “tolerability (fur appearance, body weight)” value in data set [2] (SAHA 5–25 mg/kg with 120 mg GM base/kg SQ daily for 2 weeks) is “tolerated”. The “effect on trauma of exposure to excessive noise” value in data set [3] (ref Chen et al., 2016) was “attenuated”. Also, in data set [3] (ref Layman et al., 2015), the “effect on acute effects of the ototoxic combination of KM and furosemide” value is listed as “attenuated”. For the same molecule, the ototoxicity entry in data set [4] is on record as “no ototoxicity”. The blood-brain barrier penetration entry in data set [5] (mouse model of Huntington’s disease, ref Hockly et al., 2003) is on record as “crosses the blood-brain barrier”. Moreover, the “blood-labyrinth barrier / inner ear penetration” value in data set [5] (mouse, IP injection, ref Layman et al., 2015) was “crosses the blood-labyrinth barrier”.
